Measurements published in patent publication US8716355B2, “Hydroxylated tolans and related compounds in the treatment of a cancer” (Kent State University, priority 2007, dated 2014).
Values joined by “and” are separate entries in the source; they are usually repeats but may differ in a detail not shown here. Equal entries are not always repeated. Where two headings read alike, the source gives them in different places.

Experiments:
NF-κB p65 = NF-κB p65 DNA-binding activity in DU145 cells (ELISA); format: cell-based, human; settings: for DNA binding of p65, % of basal activity: 100 μM
Description: An ELISA kit (Pierce, Rockford, Ill.) was used to detect the active forms of NF-κB p65 by measuring its binding to a consensus DNA sequence. A primary antibody specific for p65 and a secondary horse-radish peroxidase (HRP)-conjugated antibody were used sequentially to produce immobilized p65-HRP complexes. A chemiluminescent substrate for HRP was added and the reaction read using the Fluoroskan Ascent FL plate reader
An ELISA kit (Pierce, Rockford, Ill.) was used to detect the active forms of NF-κB p65 by measuring its binding to a consensus DNA sequence. […] As controls, untreated cells were prepared under the same conditions. Cells were collected by scraping and incubated in ice-cold RIPA lysis buffer containing 1% NP40, 0.5% sodium deoxycholate, 0.1% SDS and protease inhibitor cocktail. After centrifugation, the supernatant was transferred to a streptavidin-coated 96-well plate. Active p65 in the sample binds to the immobilized DNA molecules.
To ensure the signal specificity, competitive DNA fragments containing a NF-κB binding site were used to prevent the binding of NF-κB to the consensus sequence. A primary antibody specific for p65 and a secondary HRP-conjugated antibody were added to each well sequentially, resulting in an immobilized p65-HRP complex. Unbound antibodies were washed away. A mixture of luminol/enhancer and peroxide solution was added into each well as a chemiluminescent substrate for HRP. The chemiluminescent signal, proportional to the relative amount of active p65 in the sample, was detected using the Fluoroskan Ascent FL plate reader (Thermo, Waltham, Mass.).
DNA sequences containing p65-binding site were immobilized to wells of 96-well plates, allowing activated p65 to bind. After washing, the amount of bound p65 was detected and quantified by the above method. The DNA-binding of active p65 was determined by the intensity of chemiluminescence produced by DNA-p65-HRP complex immobilized on well surfaces. The results represent the mean±SD of triplicate determinations. An inhibitor of p65 binding to DNA was added to confirm specificity. […]

T24 = assay: MTT cytotoxicity, T24 bladder cancer cells; format: cell-based, human
Description: As a first step, the antitumor activity of the tolans was assessed against a panel of three cancer cells lines that produce solid tumors upon implantation into animals. DU145 is an androgen-independent prostate cancer cells. T24 is a transitional cell bladder carcinoma cell. MDAH2274 (“MDAH) is an endometroid ovarian adenocarcinoma cell. To assess the selectivity of this antitumor activity, the toxicity of the tolans to normal human fibroblasts (MHRF) was examined.
Cell killing was evaluated using the colorimetric MTT assay. The assay measures the formation of a colored product from a chromogenic precursor, the tetrazole 3-[4,5-dimethylthiazol-2-yl]-2,5 diphenyltetrazolium bromide (MTT). The yellow MTT is reduced to purple formazan in the mitochondria of living cells. A solubilization solution (typically dimethyl sulfoxide or sodium dodecyl sulfate in dilute hydrochloric acid) is added to dissolve the insoluble purple formazan product into a colored solution. The absorbance of this colored solution is quantified by measuring at a certain wavelength (usually between 500 and 600 nm) by a spectrophotometer. […] This MTT assay is used widely to assess the cytotoxicity and selectivity of compounds such as anti-cancer drugs. The assay is suitable for rapid toxicity characterization of a test agent such as a drug formulation. […] A lower CD50 indicates a greater cytotoxic activity (as a lower amount of the agent is needed to achieve a fixed level of cytotoxicity). Two agents can be compared by examining the fold-increase or decrease in their CD50 values. […]

Vero cells = assay: Cytotoxicity (CD50) on Vero cells; format: cell-based; settings: 48 hours of exposure
Excerpt: See Example II for tumor cell cytotoxicity of these compounds. […] NAB group 32 contains two compounds, Tolan-2 (also designated herein as KST-201) and Stil-2. Based on the NAB, they were classified as topological isomers. However, chemically they differ because Stil-2, a […], contained a double bonded linker, while Tolan-2 contained a triple bonded linker. The cytotoxicity of the two molecules on Vero cells differed markedly: Tolan-2 was less toxic than Stil-2.

A375 = assay: MTT cytotoxicity, A375 melanoma; format: cell-based; settings: Homo sapiens, A-375, 72 h; 3 Days; read-out: CD50 (μM) A375
Description: (§1) Cell killing was evaluated using the colorimetric MTT assay. The assay measures the formation of a colored product from a chromogenic precursor, the tetrazole 3-[4,5-dimethylthiazol-2-yl]-2,5 diphenyltetrazolium bromide (MTT). The yellow MTT is reduced to purple formazan in the mitochondria of living cells. A solubilization solution (typically dimethyl sulfoxide or sodium dodecyl sulfate in dilute hydrochloric acid) is added to dissolve the insoluble purple formazan product into a colored solution. The absorbance of this colored solution is quantified by measuring at a certain wavelength (usually between 500 and 600 nm) by a spectrophotometer. The amount of purple formazan product generated is proportional to the number of viable cells (Mosmann, T., 1983, J. Immunol. Meth. 65:55-63; Wilson, A. P., Cytotoxicity and Viability Assays. In: Animal Cell Culture: A Practical Approach, 3rd ed. (Masters, J R W, ed.) Oxford University Press: Oxford, Vol. 1, pp. 175-219. 2000). This MTT assay is used widely to assess the cytotoxicity and selectivity of compounds such as anti-cancer drugs. The assay is suitable for rapid toxicity characterization of a test agent such as a drug formulation. […] A lower CD50 indicates a greater cytotoxic activity (as a lower amount of the agent is needed to achieve a fixed level of cytotoxicity). […]

MeWo = assay: MTT cytotoxicity, MeWo melanoma; format: cell-based; settings: Homo sapiens, 72 h, 3 Days, read-out: CD50 (μM) MeWo
Description: as §1

HCT116 = assay: MTT cytotoxicity, HCT116 colon; format: cell-based; settings: Homo sapiens, HCT-116, 72 h; 3 Days; read-out: CD50 (μM) HCT116
Description: as §1

[1] = MTT, 1 day incubation, read-out: CD50 against T24, compound tested individually

Oc1ccc(C#Cc2ccc(O)cc2)cc1 [KST-201, 4,4′-dihydroxytolan]
Reduction of DNA-binding activity of NF-κB by at least 50% (NF-κB p65; 12-hour treatment): not sufficient to reduce DNA-binding activity of NF-κB
NF-κB inhibition compared with resveratrol (NF-κB p65; 24-hour treatment, 50 and 100 μM): more effective inhibitor of NF-κB
Fold more potent in killing T24 cells vs. control MHRF fibroblasts (T24): 18 fold
IC50 (T24; Homo sapiens, T-24, 24 h, VC:KST-201 200:1, 1 day, read-out: CD50 (μM) of each Compound tested in combination, T24): 3.19 µM
IC50 (T24; Homo sapiens, T-24, 48 h, VC:KST-201 200:1, 2 days, read-out: CD50 (μM) of each Compound tested in combination, T24): 3.17 µM
IC50 (T24; Homo sapiens, T-24, 72 h, MTT, 3 days incubation, read-out: CD50 against T24): 8.5 µM
IC50 (T24; [1]): 83 µM and 82.6 µM
IC50 (T24; MTT, 2 days incubation, read-out: CD50 against T24, compound tested individually): 31.1 ± 0.81 µM
Fold more toxic to T24 bladder cancer cells than resveratrol (T24; Table 15 vs Table 14): 2.8 fold
Increase of cytotoxic potency when given together, T24 (T24; VC:KST-201 200:1): about 7 fold
CD50 (Vero cells): 106 µM
Log CD50 (Vero cells): 2.03
IC50 (A375): 4.6 ± 0.1 µM
IC50 (MeWo): 156 ± 2.5 µM
IC50 (HCT116): 129 ± 4 µM

Oc1ccc(/C=C/c2cc(O)cc(O)c2)cc1 [Resveratrol, 3,5,4′-trihydroxy-trans-stilbene, reference compound]
DNA binding of p65, % of basal activity (NF-κB p65; 12 hours): 55.3%
DNA binding of p65, % of basal activity (NF-κB p65; 24 hours): 40.2%
DNA binding activity of p65, % of basal activity (NF-κB p65; 24-hour treatment at 5, 25 and 50 μM): ~80%
IC50 (T24; Homo sapiens, T-24, 24 h, MTT, 1 day incubation, read-out: CD50 against T24, compound tested individually): 36 µM
IC50 (T24; Homo sapiens, T-24, 48 h, MTT, 2 days incubation, read-out: CD50 against T24, compound tested individually): 29.1 ± 0.05 µM
IC50 (T24; [1]): 35.7 ± 1 µM
IC50 (T24; MTT, 3 days incubation, listed as resveratrol, read-out: CD50 against T24): 23 µM
IC50 (T24; MTT, 3 days incubation, read-out: CD50 against T24): 22.6 ± 0.25 µM
CD50 (Vero cells): 264 µM
Log CD50 (Vero cells): 2.42
IC50 (A375): 19 ± 0.2 µM
IC50 (MeWo): 185 ± 3.7 µM
IC50 (HCT116): 94 ± 0.1 µM
